PubChem BioAssay AID179 (DTP/NCI, 2004)
Activity calls are given as the source filed them.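 How the source made its calls: active means compounds giving half or more protection of infected cells from virus-caused growth loss, again on retest; inactive means the rest.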 Where a SMILES comes first, the peptide text is derived from it. Bridges are numbered along the chain shown (N, C = ends). [ ]: non-standard residue; d: D form. The star is where a group is joined. Cbz = O=C(OCc1ccccc1)*; Aib = CC(C)(N)C(=O)O; OBn = c1ccc(CO*)cc1; βAla = NCCC(=O)O

System: CEM cells HIV-1 protection, formazan growth assay
Experiment: NCI AIDS Antiviral Assay
Details: for IC50: measured here: growth of uninfected CEM cells
Procedure: The ability of compounds to protect human CEM cells from HIV-1 infection is measured as a screen for new compounds capable of inhibiting the HIV virus. Five concentrations of drug were tested on uninfected and infected cells and cell growth was measured using a soluble formazan assay. […] Compounds that provided at least 50% protection were retested. Compounds that provided at least 50% protection on retest were listed as moderately active. Compounds that reproducibly provided 100% protection were listed as confirmed active. […] Note that the inability to provide protection could be due to toxicity.

| SMILES | EC50 | IC50 | outcome |
| --- | --- | --- | --- |
| CC1(c2nc3cc(Cl)c(Cl)cc3[nH]2)CCC(C(=O)O)C(C)(C)O1 (stereo not drawn) | > 200 µM | > 200 µM |  |
| O=C1c2ccccc2C(=CC=C2c3ccccc3Sc3ccccc32)c2ccccc21 | > 9.12 µM | > 9.12 µM |  |
| c1ccc2sc(CN(Cc3nc4ccccc4s3)Cc3nc4ccccc4s3)nc2c1 | > 40.7 µM | > 40.7 µM |  |
| Nc1ccccc1SSc1ccccc1C(=O)O | 35.5 µM | 41.7 µM |  |
| C/C=C\C(=O)C#Cc1cnc(OC)nc1OC | > 2 µM | 0.0912 µM |  |
| COc1ccc(/C=C/C(=O)OCCc2ccccc2)cc1O | > 8.32 µM | 4.47 µM |  |
| C/C=C(\C)C(=O)N1c2ccccc2CC1c1c(C)[nH]c2ccccc12 (stereo not drawn) | > 21.9 µM | 6.92 µM |  |
| CCN1C(=O)C(C)C=C(C)C=C1C (stereo not drawn) | > 724 µM | > 724 µM |  |
| Clc1ccc2c(Cl)nc(-c3ccccc3)nc2c1 |  |  | inactive |
| O=C(Nc1ccc(Cl)cc1)P(=O)(O)c1ccccc1 | > 200 µM | > 200 µM |  |
| CCCCCC1=CC(=O)C=C(OC)C12C(=O)Oc1cc(O)c(C(=O)O)c(CCCCC)c12 (stereo not drawn) | > 562 µM | 77.6 µM |  |
| Cc1nc(Nc2ccc(Cl)c(Cl)c2)sc1C(/C=C/c1ccc2c(c1)OCO2)=N/Nc1ccc([N+](=O)[O-])cc1[N+](=O)[O-] | > 2.34 µM | > 2.34 µM |  |
| CC(=O)Nc1ccc2oc(=O)ccc2c1 | > 1230 µM | 562 µM |  |
| O=C(/C=C/c1cc(F)ccc1F)OCCc1ccccc1 |  | 141 µM | inactive |
| C=C1CN(S(=O)(=O)c2ccc(C)cc2)CCCN(C(=O)OC(C)C)CCCN(S(=O)(=O)c2ccc(C)cc2)C1 | > 200 µM | 14.1 µM |  |
| CC(C)(C)OC(=O)N[C@H]1CC2(C=C(Cl)C(=O)C(Cl)=C2)OC1=O |  |  | inactive |
| CC(C)=CCc1cc2c(cc1O)OC[C@H]1c3cc4c(cc3O[C@@H]21)OCO4 | > 53.7 µM | 2.09 µM |  |
| CCC(C)SC1SCC2C(=O)N(C)C3(CC3C)C(=O)OCC(NC(=O)c3nc4ccccc4cc3O)C(=O)NC(C)C(=O)N(C)C1C(=O)N(C)C1(CC1C)C(=O)OCC(NC(=O)c1nc3ccccc3cc1O)C(=O)NC(C)C(=O)N2C (stereo not drawn) | > 0.02 µM | 8.71e-05 µM |  |
| COc1c(O)c2c(c(O)c1C(C)C)C(=O)C(O)=C1C(C)(C)CCC[C@@]12C | > 120 µM | 16.2 µM |  |
| CN1C(=O)NC2(C1=O)C(=O)N(C)C(=O)N2C (stereo not drawn) | > 1100 µM | > 1100 µM |  |
| N#C/C(=C\c1ccccc1)c1ccccc1F | > 200 µM | 37.2 µM |  |

| SMILES | EC50 | IC50 | outcome |
| --- | --- | --- | --- |
| COc1cc2ccc(C(=O)O)cc2cc1OC |  |  | inactive |
| COCCOCOC(CCCCO)c1cc(C)c(O[Si](C)(C)C(C)(C)C)c(C)c1 (stereo not drawn) | > 50.1 µM | 4.9 µM |  |
| COc1ccc(C[C@H]2COC(=O)[C@@H]2Cc2cc(OC)c(O)c(OC)c2)cc1OC | > 200 µM | 39.8 µM |  |
| C[C@@H]1CN(C(=O)CCOS(C)(=O)=O)[C@@H](C)CN1C(=O)CCOS(C)(=O)=O | > 200 µM | 67.6 µM |  |
| Cc1cc2nc3ccccc3n2c2nc(N)ccc12 | > 200 µM | 6.61 µM |  |
| CSc1nc(C)c(CCOC(C)=O)c(Cl)n1 | > 200 µM | > 200 µM |  |
| COC1/C=C/OC2(C)Oc3c(C)c(O)c4c(O)c(c(C=NN5CCCCCCCCCCCCCCC5)c(O)c4c3C2=O)NC(=O)/C(C)=C/C=C/C(C)C(O)C(C)C(O)C(C)C(OC(C)=O)C1C (stereo not drawn) | > 200 µM | 3.98 µM |  |
| Cc1ccccc1C1N=C2Oc3ccccc3C=C2C(=O)N1 (stereo not drawn) | > 100 µM | 1.41 µM |  |
| S=C(N1CCN(c2ccc(Cl)c(Cl)c2)CC1)N1CCN(c2ccc(Cl)c(Cl)c2)CC1 | > 200 µM | 10 µM |  |
| O=C(CSSCC(=O)OCCS(=O)(=O)Nc1ccc(Br)cc1)OCCS(=O)(=O)Nc1ccc(Br)cc1 |  |  | inactive |
| CC(=O)Nc1ccc(-c2nnc(SCC(=O)Nc3ccccc3)o2)cc1 | > 37.2 µM | 20.9 µM |  |
| CCOC(=O)c1ccc(N=Cc2ccc(N(CCC#N)S(=O)(=O)c3ccccc3)cc2C)cc1 | > 75.9 µM | > 75.9 µM |  |
| Clc1ccc(CN2COc3c(cc(Cl)c4cccnc34)C2)c(Cl)c1 | > 100 µM | 1.74 µM |  |
| Cc1ccc(C2(c3ccc(C)cc3)SC(=C(C#N)C#N)c3ccccc32)cc1 | > 200 µM | > 200 µM |  |
| COc1cc(C(=O)CC(O)(C(F)(F)F)C(F)(F)F)cc(OC)c1OC | > 200 µM | > 200 µM |  |
| CN1CCN=C1c1nnn(-c2ccc([N+](=O)[O-])cc2)c1-c1ccccc1 | 57.5 µM | 145 µM |  |
| Cc1cc2c(=O)[nH]nc(N)c2c(N)n1 | > 200 µM | > 200 µM |  |
| COc1ccc(-c2csc(=[N+]3CCCCC3)s2)cc1 |  |  | inactive |
| CCOc1ccccc1/C=C(/C#N)C(N)=O | > 200 µM | 117 µM |  |
| NC(CCSS(=O)(=O)O)=NCC(c1ccccc1)c1ccccc1 | > 123 µM | 20 µM |  |
| CC1(C)NC(=O)C(NC(=O)C(CC(=O)OCc2ccccc2)NC(=O)OCc2ccccc2)CCCCNC(=O)CCNC1=O (stereo not drawn) (Cbz-D(OBn)K[Aib][βAla]; lactam 2-C; configuration not given here) | > 200 µM | > 200 µM |  |

| SMILES | EC50 | IC50 | outcome |
| --- | --- | --- | --- |
| COC1=CC=C2Nc3nc(N)[nH]c(=O)c3SC2N1 (stereo not drawn) | > 178 µM | > 178 µM |  |
| Clc1ccccc1CSc1cnnc2ccccc12 | > 93.3 µM | 67.6 µM |  |
| NC(CS)=NCc1ccccc1 | > 200 µM | 33.1 µM |  |
| O=C(O)/C(=C/c1ccccc1[N+](=O)[O-])c1ccccc1 | > 603 µM | 550 µM |  |
| COc1ccc(Cc2nn(C3OC(COC(C)=O)C(OC(C)=O)C(OC(C)=O)C3OC(C)=O)c(=S)n(-c3ccc(OC)cc3)c2=O)cc1 (stereo not drawn) |  |  | inactive |
| Nc1nc(N)c(NC(=O)CCCO)c(=O)[nH]1 | > 200 µM | > 200 µM |  |
| CC(C)Oc1c(O)c2c3c(oc(=O)n3C=CC2c2ccccc2)c1OC(C)C (stereo not drawn) | > 200 µM | 21.9 µM |  |
| C/C(=N\N=C(\N)SB(F)F)c1ccc2ccccc2c1 | > 200 µM | 29.5 µM |  |
| COc1nc(C(Cl)(Cl)Cl)c(Cl)c(OC)c1Cl | > 41.7 µM | > 41.7 µM |  |
| CNc1c(Cl)cccc1S(=O)(=O)c1ccccc1[N+](=O)[O-] | 3.31 µM | > 200 µM |  |
| CC(C)(C)C1COP(=O)(OCc2ccccc2)OC1 (stereo not drawn) | > 631 µM | > 631 µM |  |
| Oc1cc(O)c2ccc(-c3ccc(O)c(O)c3)[o+]c2c1 | > 200 µM | 12.3 µM |  |
| CCOC(=O)COc1ccc(S(=O)(=O)c2ccc(OCC(=O)OCC)cc2)cc1 | > 200 µM | > 200 µM |  |
| Oc1ccc2c(c1)OCC1c3ccccc3OC21 (stereo not drawn) |  |  | inactive |
| CCOc1ccc2nc3nc(=O)[nH]c(C)c3c(NC(C)(CO)CO)c2c1 | > 200 µM | > 200 µM |  |
| COCC#C[C@@]1(O)CCCCC1CC(OC)OC (stereo partly drawn) | > 200 µM | 112 µM |  |
| CC1(Cl)CCC2(CC(Br)=CC3OC32C)CC1Br (stereo not drawn) |  |  | inactive |
| O=C(Nc1cc2c(=O)[nH]c3ccccc3c2oc1=O)c1cnccn1 | > 100 µM | > 100 µM |  |
| CC1=C2OCS(=O)C2C2C(=O)N(c3ccccc3)C(=O)C2C1 (stereo not drawn) | > 794 µM | 501 µM |  |
| CN1C(=O)CN2C(Cl)(Cl)C2(c2ccccc2F)c2cc([N+](=O)[O-])ccc21 (stereo not drawn) | > 200 µM | 141 µM |  |
| O=C(C[P+](c1ccccc1)(c1ccccc1)c1ccccc1)c1ccc([N+](=O)[O-])cc1 | > 200 µM | 19.1 µM |  |
